The values below are quoted from earlier work in patent US20070287931A1, “Methods and systems for administering an appropriate pharmacological treatment to a patient for managing epilepsy and other neurological disorders” (priority 2006, published 2007).

Read-outs that look alike come from different tables or passages of the source.

The conditions of data set [1]: for plasma concentration per daily dose of 1 mg/kg: per daily dose of 1 mg/kg; for plasma concentration per daily dose of 1 mg/kg of primidone: per daily dose of 1 mg/kg of primidone.
The test system of the next data set is sodium channels. As to conditions: in vitro.
In data set [2] the test system is dopaminergic and serotonergic neurotransmission. To be noted: in vivo microdialysis.
Another data set concerns rat hippocampal slices. As to conditions: 10-30 μg/mL.
Another data set has as its system T-type Ca^2+ currents. To be noted: in vitro.
The subject of the next data set is partial seizures. To be noted: controlled trials, adjunctive therapy of partial seizures in adults, oral.
The test system of data set [3] is cultured mouse spinal cord neurons. To be noted: 10-30 μg/mL.
Data set [4] has as its system GABA/benzodiazepine receptor ionophore complex. To be noted: in vitro.
For a further data set, the system named is seizure. To be noted: intranasal.
For data set [5] the following is noted: intranasal.

Take `O=C1NC(=O)C(c2ccccc2)(c2ccccc2)N1` [Phenyloin, diphenylhydantoin]: the “concentrations at which toxic effects such as nystagmus develop” value was “around 20 μg/ml”. The “concentrations giving chronic control of seizures” value in the data set with seizures is reported as “above 10 μg/ml”.
`CCC1(c2ccccc2)C(=O)NC(=O)NC1=O` [phenobarbital, Phenobarbital]: in data set [1] (long term therapy, adults), the “plasma concentration per daily dose of 1 mg/kg” value is recorded as “about 10 μg/ml”. Moreover, in data set [1] (long term therapy), the “plasma concentration per daily dose of 1 mg/kg of primidone” value is given as “about 2 μg/ml”.
In the case of `NS(=O)(=O)Cc1noc2ccccc12` [zonisamide, 1,2-benzisoxazole-3-methanesulfonamide], the “carbonic anhydrase inhibiting activity” value in the data set on carbonic anhydrase is recorded as “weak”. The “effect on sodium channels” value in the data set on sodium channels is listed as “blocks sodium channels”. Further, the “dopaminergic and serotonergic neurotransmission” value in data set [2] is “facilitates both dopaminergic and serotonergic neurotransmission”. Moreover, the “neuronal or glial uptake of [3H]-GABA” value with rat hippocampal slices is “without affecting”. For the same compound, the “effect on voltage-dependent, transient inward currents (T-type Ca2+ currents)” value in the data set with T-type Ca^2+ currents is on record as “reduces voltage-dependent, transient inward currents”. For the same compound, the effective doses in the data set on partial seizures was 100 to 600 mg/day. In data set [3], the “postsynaptic GABA or glutamate responses” value is on record as “without affecting” and the synaptically-driven electrical activity is listed as “suppresses synaptically-driven electrical activity”. Also, the “binding to the GABA/benzodiazepine receptor ionophore complex” value in data set [4] is recorded as “binds to the GABA/benzodiazepine receptor ionophore complex in an allosteric fashion which does not produce changes in chloride flux”.
As for `CCC1(C)CC(=O)NC1=O` (stereo not drawn) [ethosuximide, Ethosuximide], in [1] (long-term therapy), the “plasma concentration per daily dose of 1 mg/kg” value is “about 2 μg/ml”.
Regarding `Cc1ncc2n1-c1ccc(Cl)cc1C(c1ccccc1F)=NC2` [Midazolam], in the data set with seizure, the “time to terminate a seizure” value was 30 s. In data set [5], the “KA (absorption rate constant)” value is 2.46 h⁻¹ and the “tE1/2 (elimination half-life)” value is 3.1 h.
`CCC1(c2ccccc2)C(=O)NCNC1=O` [primidone, Primidone]: the “plasma concentration per daily dose of 1 mg/kg of primidone” value in [1] (long term therapy) is reported as “about 1 μg/ml”.
